How the values were obtained:
[1] = system: healthy Madin-Darby canine kidney epithelial cells of the MDCK line; assay: Resazurin cell proliferation test, MDCK cells; format: cell-based
Excerpt: (§1) For cell culture, human cervical epithelial cells of the HeLa line, human epithelial pancreatic adenocarcinoma cells of the BxPC-3 line and healthy Madin-Darby canine kidney epithelial cells of the MDCK line were used in this study. The Resazurin cell proliferation test was applied according to the literature (S. Anoopkumar-Dukie, J. B. Carey, T. Conere, E. O'Sullivan, F. N. van Pelt, A. Allshire, Br J Radiol 2005, 78, 945, DOI: 10.1259/bjr/54004230). As an indicator of the effectiveness of the experimental compounds on cell proliferation, the median inhibitory concentration (IC50) was used. The lower the IC50 value, the higher the activity (in this case, the cytotoxicity).
(§2) Five formula I complexes were tested in this study in comparison to two reference anti-cancer compounds (“Cisplatin” and Doxorubicin complex).

[2] = system: human epithelial pancreatic adenocarcinoma cells of the BxPC-3 line; assay: Resazurin cell proliferation test, BxPC-3 cells; format: cell-based
Excerpt: as §1, §2

[3] = system: human cervical epithelial cells of the HeLa line; assay: Resazurin cell proliferation test, HeLa cells; format: cell-based
Excerpt: as §1, §2

[4] = Chemical stability of the complexes (solid, water, physiological medium, sugar syrup; 1H-NMR or UV-vis); format: physicochemical; details: for Stability in a physiological medium or in a sugar syrup: physiological medium or sugar syrup with 50% by weight, very low concentrations; for Stability in water: 5×10^−3-2×10^−7 M concentration range (K—Mo2O2S2-LCys: down to micromolar concentrations)
Excerpt: In solid form, the compounds obtained are perfectly stable in air and can be kept without any special conditions for years without any alteration.
The stabilities of the complexes in solution are studied by different techniques (^1H-NMR or UV-vis spectroscopy), the objective being to study their behavior in different media in terms of stability.

[5] = cited from earlier work
[6] = healthy cells, IC50 equal to and greater than 100 μM considered no activity
[7] = pancreatic cancer cells, IC50 equal to and greater than 100 μM considered no activity
[8] = cervical cancer cells, IC50 equal to and greater than 100 μM considered no activity

Structure (SMILES)	IC50 [1, 6] [µM]	IC50 [2, 7] [µM]	IC50 [3, 8] [µM]	Stability in a physiological medium or in a sugar syrup [4]	Stability in water [4]	also measured
N.N.[Cl][Pt][Cl] [Cisplatin, reference compound]	30.9 ± 1.1	11.2 ± 1.2	3.99 ± 0.33			
COc1cccc2c1C(=O)c1c(O)c3c(c(O)c1C2=O)C[C@@](O)(C(=O)CO)C[C@@H]3O[C@H]1C[C@H](N)[C@H](O)[C@H](C)O1 [Doxorubicin, reference compound]						IC50 ([1]; Canis lupus familiaris, MDCK): 1.48 ± 3.1 µM; IC50 ([2]; Homo sapiens, BXPC-3): 3.99 ± 7.9 µM; IC50 ([3]; Homo sapiens, HeLa): 1.31 µM
N[C@@H](C[S-])C(=O)[O-].N[C@@H](C[S-])C(=O)[O-].[K+].[K+].[O]=[Mo+]12[S][Mo+]1(=[O])[S]2 [K—Mo2O2S2-Cys, K2[Mo2O2S2 (LCys)2]·xH2O]				good stability	without any breakdown	IC50, MDCK [1, 6]: Inactive; IC50, BxPc-3 [2, 7]: Inactive; IC50, HeLa [3, 8]: Inactive
O=C([O-])CN(CCN(CC(=O)[O-])CC(=O)[O-])CC(=O)[O-].[O]=[Mo+]12[S][Mo+]1(=[O])[S]2.c1ccc([P+](c2ccccc2)(c2ccccc2)c2ccccc2)cc1.c1ccc([P+](c2ccccc2)(c2ccccc2)c2ccccc2)cc1 [PPh4—Mo2O2S2-EDTA]	≥ 100	59.8 ± 26.4	≥ 100			
O=C([O-])CN(CCN(CC(=O)[O-])CC(=O)[O-])CC(=O)[O-].[O]=[Mo+]12[S][Mo+]1(=[O])[S]2 [[Mo2O2S2-EDTA]^2−]				good stability	no sign of decomposition	
[Li] [lithium]						Serum lithium concentration at which toxicity appears [5]: greater than 2 mmol/l
